The text below walks through data of US20070021351A1, “Liver/plasma concentration ratio for dosing hepatitis C virus protease inhibitor” (Schering Corporation, priority 2005, published 2007).

As a reminder, the IC50 is the concentration that inhibits the measured activity by half. Broadly, the IC90 is the concentration at which the effect reaches the 90% level.

Where only a bound is given, the exact number is not on record here.

For series [1], the system named is HCV-RNA viral load (genotype 1). In words: Example 3: pharmacodynamics, effect on HCV-RNA viral load. Type of series: in vivo. To be noted: 400 mg TID. Here is the method:
Multiple escalating doses of compound of Formula Ia were administered for 14 days to HCV positive subjects who were genotype 1 Interferon-a (with or without ribavirin) non responders. In a randomized, placebo controlled, third party blind study, multiple doses of 100 mg BID, 200 mg BID, 400 mg BID, 400 mg TID, and 600 mg TID of compound of Formula Ia or placebo in a 3:1 ratio with or without food were evaluated. […]
Serial HCV-RNA data were evaluated for antiviral activity and for the change from baseline in the serum HCV RNA levels.

The test system of series [2] is HCV replicon (bicistronic subgenomic replicon, genotype 1b). In words: HCV replicon system, 72 hour assay in HuH-7 cells. Type of series: cell-based. The source says: Changes in replicon RNA level are compared to an internal control, such as cellular glyceraldehydes-3-phosphate dehydrogenas (GAPDH) messenger RNA levels, in a single-tube multiplex reaction. […] Therefore, it is contemplated that compound of Formula Ia administration to a subject in need thereof according to the present invention results in about a 0.5- to about 4.0-log decrease in viral load RNA levels, preferably about a 1.0- to about 3.0-log decrease in viral load RNA.
Replicon systems are well-established surrogates for viral replication as there is no HCV viral culture system. The HCV replicon is a non-infectious genotype 1b viral genome in which the sequences encoding the structural proteins at the 5′ end of the RNA have been replaced by a selectable marker, neoR.
NS3-mediated cleavage of the HCV polyprotein releases functional viral proteins essential for viral propagation. Therefore, blockage of NS3 protease activity by compound of Formula Ia is expected to inhibit viral replication in infected host cells.

Series [3] can be described thus: Tissue distribution. The series is classed as in vivo. To be noted: liver as well as extra-hepatic sites.

Consider `CC(C)(C)NC(=O)N[C@H](C(=O)N1C[C@H]2[C@@H]([C@H]1C(=O)NC(CC1CCC1)C(=O)C(N)=O)C2(C)C)C(C)(C)C` (mixture of isomers) [Formula Ia, (1R,5S)-N-[3-Amino-1-(Cyclobutylmethyl)-2,3-Dioxopropyl]-3-[2(S)-[[[(1,1-Dimethylethyl)Amino]Carbonyl]Amino]-3,3-Dimethyl-1-Oxobutyl]-6,6-Dimethyl-3-Azabicyclo[3.1.0]Hexan-2(S)-Carboxamide], for which the “dose dependence of antiviral activity” value in series [1] (100 mg BID, 200 mg BID, 400 mg BID, all subjects) is listed as “antiviral activity increased in a dose-related manner”. The “viral load reduction from baseline, average minimum reduction” value in series [1] (14 days, genotype 1 interferon non responders) turned out to be 2 logs. In addition, the IC50 in series [2] (Hepatitis C virus, Huh-7, 72 h, read-out: IC50 for suppression of the HCV replicon) is no more than 200 nM. Also, in series [2] (Hepatitis C virus, Huh-7, 72 h, read-out: IC90 for suppression of the HCV replicon), the IC90 was no more than 400 nM. Also, in series [2] (exposure to 12×IC90 (5 μM)), the “replicon RNA decrease compared with 6×IC90” value is “comparable results”. In addition, in series [3], the tissue distribution result was “distributes widely throughout the tissues of the body”.
